# The source made the active and inactive calls.
# Key:
# cells = type: functional, cell-based; conditions: HEK-CNG
# Galanin receptor type 3 = molecular target: T1, Galanin receptor type 3 (Homo sapiens, UniProt O60755); test: Fluorescence-based cell-based primary high throughput dose response assay to identify antagonists of the Galanin Receptor 3 (GalR3).; type: functional
# T1 sequence (O60755 whole entry): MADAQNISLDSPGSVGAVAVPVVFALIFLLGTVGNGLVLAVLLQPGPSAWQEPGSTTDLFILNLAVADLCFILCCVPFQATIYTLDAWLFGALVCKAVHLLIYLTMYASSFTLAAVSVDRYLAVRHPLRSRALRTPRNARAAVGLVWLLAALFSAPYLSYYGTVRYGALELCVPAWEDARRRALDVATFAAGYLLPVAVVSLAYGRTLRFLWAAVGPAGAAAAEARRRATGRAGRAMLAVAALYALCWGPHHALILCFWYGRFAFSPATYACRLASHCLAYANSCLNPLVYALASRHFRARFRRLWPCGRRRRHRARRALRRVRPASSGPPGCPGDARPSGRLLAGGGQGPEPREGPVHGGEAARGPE
# [1] = Shn3 3'UTR reporter inhibitors, dose response, cell-based, Clone20 osteoblasts, firefly luciferase, cherry-picked (AID 624132); type: functional;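 further: firefly luciferase luminescence from reporter carrying the Shn3 3'UTR in osteoblasts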
# Jurkat = test: antigen receptor-induced NF-kB inhibitors, dose response, Jurkat, luciferase reporter, luminescence, B- and T-cell (AID 489004); type: functional, cell-based; conditions: Homo sapiens;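 further: NF-kB luciferase reporter Jurkat cells stimulated with PMA plus ionomycin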
# [2] = insulin promoter down-regulators in MIN6 cells, imaging, high-content screening, mouse beta cells (AID 1628); type: functional
# [3] = cytotoxicity in HEK-293T NF-kB-Luc cells, dose response, cytotoxicity control for B/T-cell NF-kB inhibitor project, cell-based, uHTS hits (AID 489019); type: functional;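 further: IC50 reflects cytotoxicity as loss of cell viability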
# [4] = HepG2 cell cytotoxicity, dose response, cytotoxicity control for Shn3 inhibitor project, CellTiter-Glo, cherry-picked (AID 624134); type: functional, cell-based
# [5] = control 3'UTR Renilla luciferase suppression, dose response, counter-screen for Shn3 inhibitor project, cell-based, Clone20-Shn3RL, cherry-picked (AID 624133); type: functional
# [6] = cytotoxicity in MIN6 insulinoma cells, dose response, cytotoxicity control, cell-based, mouse insulinoma (AID 2122); type: functional;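 further: confirmatory high-throughput counterscreen run to flag cytotoxic compounds; mouse MIN-6 beta cells carrying an insulin promoter eGFP reporter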
# [7] = inhibitors of firefly luciferase expression or activity, dose response, H4 neuroglioma cells, luminescence (AID 1990); type: functional, cell-based
# [8] = Luminescence Cell-Based Dose Response HTS to Identify Inhibitors of 5'UTR Stem-Loop Driven Prion Protein mRNA Translation in H4 Neuroglioblastoma Cells. [Related pubchem assays: 1827 (Project Summary), 1813 (Primary HTS)]; type: functional
# [9] = HeLa cell cytotoxicity, dose response, cytotoxicity control for MgcRacGAP inhibitor project (AID 624300); type: functional
# [10] = inhibitors of SNCA 5'UTR-driven reporter translation, confirmation, H4 neuroglioma cells, luminescence (AID 1988); type: functional, cell-based
# [11] = molecular target: T2, Rac GTPase-activating protein 1 (Homo sapiens, UniProt Q9H0H5); test: MgcRacGAP GTPase-activating activity inhibitors, confirmation, biochemical, ADP Hunter fluorescence, primary and confirmatory (AID 624330); type: functional
# T2 sequence (Q9H0H5 whole entry): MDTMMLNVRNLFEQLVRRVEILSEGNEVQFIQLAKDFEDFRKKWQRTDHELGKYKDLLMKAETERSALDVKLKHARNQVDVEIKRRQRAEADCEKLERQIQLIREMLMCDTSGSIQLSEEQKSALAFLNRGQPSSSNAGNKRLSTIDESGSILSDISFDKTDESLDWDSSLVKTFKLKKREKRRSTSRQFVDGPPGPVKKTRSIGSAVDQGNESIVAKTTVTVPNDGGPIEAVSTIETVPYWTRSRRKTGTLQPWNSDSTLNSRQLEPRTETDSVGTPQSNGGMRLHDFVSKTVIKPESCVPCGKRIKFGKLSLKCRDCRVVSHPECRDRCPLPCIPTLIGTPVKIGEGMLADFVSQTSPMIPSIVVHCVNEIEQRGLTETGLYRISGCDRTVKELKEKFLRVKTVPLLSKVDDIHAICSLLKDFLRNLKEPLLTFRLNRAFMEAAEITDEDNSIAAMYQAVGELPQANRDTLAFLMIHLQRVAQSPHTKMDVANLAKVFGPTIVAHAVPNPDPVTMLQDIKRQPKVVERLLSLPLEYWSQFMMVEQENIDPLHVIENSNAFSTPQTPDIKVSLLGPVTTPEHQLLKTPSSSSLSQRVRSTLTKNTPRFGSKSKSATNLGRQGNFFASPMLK
# HEK293 [12] = test: cells; conditions: Homo sapiens
# HEK293 [13] = test: cells; conditions: Homo sapiens; remark: listed apart in the source
# A-375 [14] = test: MITF: Counter assay: A375 proliferation Measured in Cell-Based System Using Plate Reader - 2084-03_Inhibitor_Dose_DryPowder_Activity. [Related pubchem assays (depositor defined):AID488944]; type: functional; conditions: Homo sapiens
# [15] = inhibitors of intracellular T. cruzi replication, confirmation, NIH3T3 host cells, beta-gal luminescence (AID 2044); type: functional, cell-based;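 further: intracellular parasites grown in NIH/3T3 mouse fibroblasts as host cells; luminescent beta-galactosidase reporter signal from transgenic T. cruzi replicating inside host cells; inhibitors lower the luminescence signal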
# [16] = molecular target: T3, Microphthalmia-associated transcription factor (Homo sapiens, UniProt O75030); test: TRPM1 promoter luciferase signal decrease, dose response, MITF inhibitor project, cell-based, SK-MEL-5, cherry-picked, set 3 (AID 493073); type: functional
# T3 sequence (O75030 whole entry): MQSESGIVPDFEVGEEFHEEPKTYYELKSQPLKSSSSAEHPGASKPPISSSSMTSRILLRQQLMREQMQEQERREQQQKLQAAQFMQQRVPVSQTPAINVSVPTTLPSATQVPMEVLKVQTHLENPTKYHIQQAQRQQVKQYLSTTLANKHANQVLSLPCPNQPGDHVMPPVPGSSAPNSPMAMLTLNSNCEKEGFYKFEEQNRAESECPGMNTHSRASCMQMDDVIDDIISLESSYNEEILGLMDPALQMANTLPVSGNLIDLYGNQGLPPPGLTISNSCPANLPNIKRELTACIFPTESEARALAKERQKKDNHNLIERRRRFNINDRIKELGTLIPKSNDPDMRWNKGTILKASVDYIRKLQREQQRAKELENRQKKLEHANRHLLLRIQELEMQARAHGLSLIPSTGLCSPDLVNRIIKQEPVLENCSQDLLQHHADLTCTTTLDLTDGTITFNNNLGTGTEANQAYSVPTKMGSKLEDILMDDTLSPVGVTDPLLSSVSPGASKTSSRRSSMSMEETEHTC
# [17] = cytotoxicity toward NIH3T3 fibroblasts, dose response, counter-screen, cell-based, ATP luminescence, mouse fibroblasts (AID 2010); type: functional;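 further: cells exposed to compound for about 90 hours before reading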
# [18] = growth suppression of PTEN-null colon cells, dose response, cell-based, HCT116 PTEN knockout (AID 1047); type: functional;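 further: HCT116 colon tumor cells with PTEN knocked out; cells exposed to compound for 60 hours before readout; potency for loss of cell viability measured by luminescence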
# [19] = growth suppression of beta-catenin-knockout colon cells, dose response, cell-based, HCT116, human colon tumor (AID 1045); type: functional;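 further: HCT116 colon tumor cells with beta catenin knocked out; cells exposed to compound for 60 hours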
# A-375 [20] = test: A375 melanoma cell viability reduction, dose response, counter-screen for MITF modulator project, cherry-pick samples, set 2 (AID 540335); type: functional, cell-based; conditions: Homo sapiens
# [21] = off-target signal loss in HeLa-CEM21 co-culture – HeLa F-luc CTL cells, cherry-picked, counter-screen for HIV-1 Env fusion inhibitor project, dose response (AID 652040); type: functional, cell-based;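 further: potency for signal decrease marking cytotoxic or nonspecific inhibition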
# [22] = A549 cell cytotoxicity, dose response, cytotoxicity control, plate reader, cherry-pick, antagonist series (AID 743412); type: functional, cell-based
# [23] = MC4R antagonists, dose response, counter-screen for LGR2 antagonist project, cell-based, plate reader, cherry pick (AID 743444); type: functional;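 further: transfected HEK 293 cells stimulated with alpha-MSH peptide; potency of inhibitors of the alpha-MSH evoked signal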
# [24] = HepG2 cell cytotoxicity, dose response, cytotoxicity control, plate reader, cherry-pick, antagonist series (AID 743416); type: functional, cell-based
# Paired box protein Pax-8 = Paired box protein Pax-8 (Homo sapiens, UniProt Q06710); test: inhibitors of PAX8-driven TPO luciferase reporter, dose response, RMG-I cells, cherry-pick (AID 687027); type: functional, cell-based;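 further: luciferase reporter driven by Pax8 target thyroperoxidase promoter measured by SteadyGlo luminescence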
# Paired box protein Pax-8, sequence (Q06710 whole entry, the tested form may be a part): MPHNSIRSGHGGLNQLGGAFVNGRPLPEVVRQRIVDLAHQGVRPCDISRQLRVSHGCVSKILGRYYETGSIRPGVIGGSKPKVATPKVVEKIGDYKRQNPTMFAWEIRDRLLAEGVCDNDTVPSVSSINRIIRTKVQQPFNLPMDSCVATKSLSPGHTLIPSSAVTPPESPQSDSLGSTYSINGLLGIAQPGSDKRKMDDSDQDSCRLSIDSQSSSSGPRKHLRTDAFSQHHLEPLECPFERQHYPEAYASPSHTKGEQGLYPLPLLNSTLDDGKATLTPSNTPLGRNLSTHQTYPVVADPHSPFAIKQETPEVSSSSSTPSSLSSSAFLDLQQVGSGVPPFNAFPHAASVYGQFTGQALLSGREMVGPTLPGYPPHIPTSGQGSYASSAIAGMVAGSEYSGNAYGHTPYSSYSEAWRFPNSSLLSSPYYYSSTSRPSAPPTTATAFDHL
# [25] = inhibitors of HIV Env-driven cell fusion, dose response, cherry-pick (AID 652057); type: functional, cell-based
# [26] = inhibitors of clade B AD8 Env fusion, dose response, cell-based, cherry-pick (AID 652062); type: functional;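 further: luciferase signal from cell-cell fusion driven by HIV-1 clade B AD8 Env; potency is for inhibitors of fusion seen as a drop in luminescence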
# [27] = LGR2 antagonists, dose response, cell-based, HEK293, CRE-luciferase reporter, cherry pick, set 2 (AID 743343); type: functional;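 further: transfected cells were stimulated with diluted bursicon conditioned medium after compound addition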
# [28] = ZM109 Env clade C HIV-1 fusion inhibitors, dose response, HeLa effector, CEM target cells, luciferase, cherry-pick (AID 652058); type: functional, cell-based
smiles,measurement,setting,value
CC(=O)c1cn(Cc2ccccc2C#N)c2ccccc12,EC50,cells,> 29.9 µM (inactive)
same,IC50,Galanin receptor type 3,3.07 µM (active)
same,AC50,[1],0.527 µM (active)
same,IC50,Jurkat,30 µM (inactive)
same,IC50,[2],1.01 µM (active)
same,IC50,[3],> 80 µM (inactive)
same,AC50,[4],2.2 µM (active)
same,AC50,[5],4.28 µM (active)
same,IC50,[6],0.64 µM (active)
COc1ccc(CNc2ncc(-c3ccc(F)cc3)n2C)c2ccccc12,IC50,Jurkat,1.97 µM (active)
same,EC50,[7],10 µM (active)
same,EC50,[8],6.58 µM (active)
same,IC50,[3],> 80 µM (inactive)
same,CC50,[9],100 µM (active)
same,EC50,[10],1.22 µM (active)
same,IC50,[11],62.6 µM (active)
CCOC(=O)[C@@H](C)N(Cc1ccc(OC)cc1)S(=O)(=O)N(Cc1ccccc1)[C@H](C(=O)OC)C(C)C,EC50,HEK293 [12],> 59.7 µM (inactive)
same,EC50,HEK293 [13],> 59.7 µM (inactive)
O=C(c1ccc(F)cc1)C(CN1CCOCC1)c1ccccc1 (stereo unspecified),AC50,A-375 [14],> 35 µM (active)
same,EC50,[15],4.06 µM (active)
same,AC50,[1],17.6 µM (active)
same,AC50,[16],5.96 µM (active)
same,IC50,[2],4.17 µM (active)
same,EC50,[17],10.9 µM (active)
same,EC50,[18],3.36 µM (active)
same,EC50,[19],2.42 µM (active)
same,AC50,[4],19.4 µM (active)
same,AC50,[5],6.91 µM (active)
same,AC50,A-375 [20],> 35 µM (active)
same,IC50,[6],3.27 µM (active)
COc1ccc(C(=O)CN2C(=O)c3ccccc3S2(=O)=O)cc1,AC50,[21],2.16 µM (active)
same,IC50,Jurkat,1.08 µM (active)
same,AC50,[22],> 52 µM (inactive)
same,AC50,[23],0.691 µM (active)
same,IC50,[3],> 80 µM (inactive)
same,AC50,[24],> 52 µM (inactive)
same,AC50,Paired box protein Pax-8,3.53 µM (active)
same,AC50,[25],1.07 µM (active)
same,AC50,[26],2.54 µM (active)
same,AC50,[27],0.675 µM (active)
same,AC50,[28],10.7 µM (active)
